Read-outs that look alike come from different tables or passages of the source.
Assays:
Test in all cases: MBIC/MIC secondary assay
S. aureus strain NRS-77 = assay type: cell-based, Staphylococcus aureus; details: for MIC: Staphylococcus aureus, NRS77
Procedure: (§1) Assays for detecting and measuring bacterial biofilm formation are known in the art. An example of a biofilm formation assay useful in detecting and characterizing biofilm inhibitor compounds is described in Example 1, infra. Briefly, bacterial cells are inoculated into growth medium in individual wells of a 96-well assay plate in the presence or absence of a compound (known biofilm inhibitor or test compound). After incubation for a specified time, growth medium and non-biofilm bacterial cells are removed from each of the wells. The bacterial cells in any biofilms that are adhered to the surface of a well are fixed by addition of ethanol. The ethanol is removed, and the fixed biofilm bacteria cells are stained with crystal violet (CV). The intensity of CV staining is directly correlated with bacterial biofilm formation and is measured in the wells by reading the optical density at 600 nm (OD600). The difference in biofilm formation between untreated control and treated cultures provides an indication of relative biofilm inhibition activity (anti-biofilm activity). Use of different concentrations of an inhibitor in multiple and otherwise duplicate cultures permits determination of a compound's Minimal Biofilm Inhibitory Concentration (MBIC), which is defined herein as the lowest concentration of a compound that inhibits biofilm formation by at least 80% (i.e., ≧80%) compared to untreated control cultures. […]
(§2) A secondary assay provided a quantitative measure of both anti-biofilm activity and antibacterial activity in terms of the Minimal Biofilm Inhibitory Concentration (MBIC) and the Minimal Inhibitory Concentration (MIC), respectively. The MBIC and MIC are defined as the lowest compound concentrations that inhibit biofilm formation and bacterial growth, respectively, by at least 80% (i.e., ≧80%). The MBIC/MIC assay is formatted in a manner that is similar to the Microbroth dilution assays described by the Clinical and Laboratory Standards Institute (CLSI; formerly NCCLS) in protocol M7-A7. The growth conditions were optimized for biofilm growth in 96-well assay plates such that the resulting CV staining was within the linear range of detection. Therefore, the MBIC/MIC assay provided a stringent measure of anti-biofilm activity.
(§3) The assay was adapted for several biofilm-forming strains of S. epidermidis, S. aureus, Enterococcus faecalis, and Pseudomonas aeruginosa. Briefly, 96-well assay plates contained a two-fold dilution series for up to 8 compounds (one compound/row) and untreated controls (concentration range of 0.2 μM-100 μM). The assay plates were inoculated with the test bacterial species, e.g., S. epidermidis 18972 (0.5×TSB, 0.25% glucose) or S. aureus ATCC 35556 (0.5×TSB, 1% glucose). The inocula were prepared by diluting an overnight culture 1:100 in fresh media, which corresponds to approximately 5×10^6 cells/well. After inoculation, the assay plates were sealed with foil tape and incubated for 18 h-20 h at 37° C. The assay plates were processed, and the percent inhibition of growth (% INH-Growth) and percent inhibition of biofilm formation (% INH-Biofilm) were calculated as described above. […] Compounds with an MBIC≦10 μM and an MIC/MBIC ratio≧8 for either S. epidermidis or S. aureus were designated as validated hits.
Minimal Biofilm Inhibitory Concentration (MBIC) and Minimal Inhibitory Concentration (MIC) of the compounds in Table 3 were determined against various strains of biofilm-forming bacteria.

[1] = test system: Escherichia coli (ATCC 25922); assay type: cell-based; details: for MIC: Escherichia coli, ATCC25922
Procedure: as §1, §2, §3
(§4) Compounds were also tested for anti-biofilm activity against a strain of biofilm-forming, vancomycin-resistant Enterococcus faecalis strain (ATCC 51299), the Gram-negative biofilm-forming opportunistic pathogen Pseudomonas aeruginosa PAO1 ([…]), and a Gram-negative, biofilm-forming strain of Escherichia coli (ATCC 25922).

[2] = test system: Pseudomonas aeruginosa PAO1; assay type: cell-based; details: for MIC: Pseudomonas aeruginosa, PAO1
Procedure: as §1, §2, §3, §4

[3] = test system: vancomycin-resistant Enterococcus faecalis strain (ATCC 51299); assay type: cell-based; details: for MIC: Enterococcus faecalis, ATCC51299
Procedure: as §1, §2, §3, §4

## CCOc1cc(/C=C2\SC(=S)N(c3cccc(F)c3)C2=O)ccc1O [Compound 8, 3-(3-fluorophenyl)-5-(3-ethoxy-4-hydroxybenzylidene)-2-thioxothiazolidin-4-one]
S. aureus strain NRS-77; S. aureus strain NRS-77
  MBIC: 25 µM
S. aureus strain NRS-77
  MIC: ≥ 100 µM
[1]; E. coli strain 25922
  MBIC: ≧100 μM
[1]
  MIC: ≥ 100 µM
[2]; P. aeruginosa strain PA01
  MBIC: ≧100 μM
[2]
  MIC: ≥ 100 µM
[3]; E. faecalis strain 51299
  MBIC: 25 µM
[3]
  MIC: ≥ 100 µM

## CCOc1cc(/C=C2\SC(=S)N(c3cccnc3)C2=O)ccc1O [Compound 36, 3-(pyridin-3-yl)-5-(3-ethoxy-4-hydroxybenzylidene)-2-thioxothiazolidin-4-one]
S. aureus strain NRS-77; S. aureus strain NRS-77
  MBIC: 12.5 µM
S. aureus strain NRS-77
  MIC: ≥ 100 µM
[1]; E. coli strain 25922
  MBIC: ≧100 μM
[1]
  MIC: ≥ 100 µM
[2]; P. aeruginosa strain PA01
  MBIC: ≧100 μM
[2]
  MIC: ≥ 100 µM
[3]; E. faecalis strain 51299
  MBIC: 12.5 µM
[3]
  MIC: ≥ 100 µM

## CCOc1cc(/C=C2\SC(=S)N(c3ccc(F)cc3)C2=O)ccc1O [Compound 4, 3-(4-fluorophenyl)-5-(3-ethoxy-4-hydroxybenzylidene)-2-thioxothiazolidin-4-one]
S. aureus strain NRS-77; S. aureus strain NRS-77
  MBIC: 25 µM
S. aureus strain NRS-77
  MIC: ≥ 100 µM
[1]; E. coli strain 25922
  MBIC: ≧100 μM
[1]
  MIC: ≥ 100 µM
[2]; P. aeruginosa strain PA01
  MBIC: ≧100 μM
[2]
  MIC: ≥ 100 µM
[3]; E. faecalis strain 51299
  MBIC: 12.5 µM
[3]
  MIC: ≥ 100 µM

## CCOc1cc(/C=C2\SC(=S)N(c3cccc(C#N)c3)C2=O)ccc1O [Compound 34, 3-(3-cyanophenyl)-5-(3-ethoxy-4-hydroxybenzylidene)-2-thioxothiazolidin-4-one]
S. aureus strain NRS-77; S. aureus strain NRS-77
  MBIC: 12.5 µM
S. aureus strain NRS-77
  MIC: ≥ 100 µM
[1]; E. coli strain 25922
  MBIC: ≧100 μM
[1]
  MIC: ≥ 100 µM
[2]; P. aeruginosa strain PA01
  MBIC: ≧100 μM
[2]
  MIC: ≥ 100 µM
[3]; E. faecalis strain 51299
  MBIC: 12.5 µM
[3]
  MIC: ≥ 100 µM

## CCOc1cc(/C=C2\SC(=S)N(c3ccc(F)nc3)C2=O)ccc1O [Compound 40, 3-(6-fluoropyridin-3-yl)-5-(3-ethoxy-4-hydroxybenzylidene)-2-thioxothiazolidin-4-one]
S. aureus strain NRS-77; S. aureus strain NRS-77
  MBIC: 6.3 µM
S. aureus strain NRS-77
  MIC: ≥ 100 µM
[1]; E. coli strain 25922
  MBIC: ≧100 μM
[1]
  MIC: ≥ 100 µM
[2]; P. aeruginosa strain PA01
  MBIC: ≧100 μM
[2]
  MIC: ≥ 100 µM
[3]; E. faecalis strain 51299
  MBIC: 6.3 µM
[3]
  MIC: ≥ 100 µM

## C=CCOc1cc(/C=C2\SC(=S)N(c3ccc(F)cc3)C2=O)ccc1O [Compound 29, 3-(4-fluorophenyl)-5-(3-allyloxy-4-hydroxybenzylidene)-2-thioxothiazolidin-4-one]
S. aureus strain NRS-77; S. aureus strain NRS-77
  MBIC: 12.5 µM
S. aureus strain NRS-77; S. aureus strain NRS-77, read-out: MIC
  MIC: ≥ 100 µM
[1]; E. coli strain 25922
  MBIC: ≧100 μM
[1]; E. coli strain 25922, read-out: MIC
  MIC: ≥ 100 µM
[2]; P. aeruginosa strain PA01
  MBIC: ≧100 μM
[2]; P. aeruginosa strain PA01, read-out: MIC
  MIC: ≥ 100 µM
[3]; E. faecalis strain 51299
  MBIC: 12.5 µM
[3]; E. faecalis strain 51299, read-out: MIC
  MIC: ≥ 100 µM
